Assay results from ChEMBL document CHEMBL5505958, “Optimization of sequence and chiral content enhances therapeutic potential of tilapia piscidin peptides” (Eur J Med Chem, 2024).
≈ marks a conversion by molar mass, not a printed value. Calls of active or inactive are those of the source. No cut-off for these calls is given here.

How the values were obtained:
Pseudomonas aeruginosa [1] = assay: Antibacterial activity against Pseudomonas aeruginosa 19660 assessed as inhibition of bacterial growth incubated for 16 to 20 hrs in presence of human serum; format: functional; details: time 16-20 hrs
Klebsiella pneumoniae [2] = assay: Bactericidal activity against Klebsiella pneumoniae BAA 2473 assessed as inhibition of bacterial growth in presence of 10 microg/ml of pepsin (reference value: 1.56 to 3.13 microM); format: functional
Klebsiella pneumoniae [3] = assay: Bactericidal activity against Klebsiella pneumoniae BAA 2473 assessed as inhibition of bacterial growth in presence of 1 microg/ml of pepsin (reference value: 1.56 to 3.13 microM); format: functional
Enterococcus faecium [4] = assay: Antibacterial activity against Enterococcus faecium 10067 assessed as inhibition of bacterial growth incubated for 16 to 20 hrs in presence of human serum; format: functional; details: time 16-20 hrs
Salmonella enterica [5] = assay: Bactericidal activity against Salmonella enterica 15455 assessed as inhibition of bacterial growth incubated for 16 to 20 hrs; format: functional; details: time 16-20 hrs
Rhizopus arrhizus [6] = assay: Fungicidal activity against Rhizopus oryzae 34550 assessed as inhibition of fungal growth incubated for 16 to 20 hrs in presence of human serum; format: functional; details: time 16-20 hrs
Salmonella enterica [7] = assay: Antibacterial activity against Salmonella enterica 15455 assessed as inhibition of bacterial growth incubated for 16 to 20 hrs in presence of human serum; format: functional; details: time 16-20 hrs
[8] = test system: Staphylococcus haemolyticus; assay: Bactericidal activity against Staphylococcus haemolyticus 15237 assessed as inhibition of bacterial growth incubated for 16 to 20 hrs; format: functional; details: time 16-20 hrs
Klebsiella pneumoniae [9] = assay: Bactericidal activity against Klebsiella pneumoniae BAA 2473 assessed as inhibition of bacterial growth in presence of 0.1 microg/ml of trypsin (reference value: 1.56 to 3.13 microM); format: functional
Yersinia enterocolitica [10] = assay: Bactericidal activity against Yersinia enterocolitica 13999 assessed as inhibition of bacterial growth incubated for 16 to 20 hrs; format: functional; details: time 16-20 hrs
Klebsiella aerogenes = assay: Bactericidal activity against Enterobacter aerogenes 15630 assessed as inhibition of bacterial growth incubated for 16 to 20 hrs; format: functional; details: time 16-20 hrs
Klebsiella oxytoca [11] = assay: Antibacterial activity against Klebsiella oxytoca 13985 assessed as inhibition of bacterial growth incubated for 16 to 20 hrs in presence of human serum; format: functional; details: time 16-20 hrs
Klebsiella pneumoniae [12] = assay: Bactericidal activity against Klebsiella pneumoniae BAA 2473 assessed as inhibition of bacterial growth in presence of 10 microg/ml of trypsin (reference value: 1.56 to 3.13 microM); format: functional
Klebsiella pneumoniae [13] = assay: Antibacterial activity against Klebsiella pneumoniae BAA 2473 assessed as inhibition of bacterial growth in presence of 10 microg/ml of chymotrypsin (reference value: 1.56 to 3.13 microM); format: functional
Klebsiella pneumoniae [14] = assay: Bactericidal activity against Klebsiella pneumoniae BAA 2473 assessed as inhibition of bacterial growth in presence of 10 microg/ml of chymotrypsin (reference value: 1.56 to 3.13 microM); format: functional
Klebsiella pneumoniae [15] = assay: Antibacterial activity against Klebsiella pneumoniae BAA 2473 assessed as inhibition of bacterial growth in presence of 1 microg/ml of pepsin (reference value: 1.56 to 3.13 microM); format: functional
Enterococcus faecium [16] = assay: Bactericidal activity against Enterococcus faecium 10067 assessed as inhibition of bacterial growth incubated for 16 to 20 hrs in presence of human serum; format: functional; details: time 16-20 hrs
Salmonella enterica [17] = assay: Bactericidal activity against Salmonella enterica 15455 assessed as inhibition of bacterial growth incubated for 16 to 20 hrs in presence of human serum; format: functional; details: time 16-20 hrs
Klebsiella pneumoniae [18] = assay: Bactericidal activity against Klebsiella pneumoniae BAA 2473 assessed as inhibition of bacterial growth incubated for 16 to 20 hrs; format: functional; details: time 16-20 hrs
Vibrio vulnificus [19] = assay: Antibacterial activity against Vibrio vulnificus 204 assessed as inhibition of bacterial growth incubated for 16 to 20 hrs in presence of human serum; format: functional; details: time 16-20 hrs
Salmonella typhimurium = assay: Bactericidal activity against Salmonella typhimurium DT104 assessed as inhibition of bacterial growth incubated for 16 to 20 hrs in presence of human serum; format: functional, Salmonella enterica subsp. enterica serovar Typhimurium; details: Salmonella enterica, time 16-20 hrs
[20] = test system: Staphylococcus haemolyticus; assay: Antibacterial activity against Staphylococcus haemolyticus 15237 assessed as inhibition of bacterial growth incubated for 16 to 20 hrs; format: functional; details: time 16-20 hrs
Staphylococcus aureus = assay: Antibacterial activity against Staphylococcus aureus 10780 assessed as inhibition of bacterial growth incubated for 16 to 20 hrs in presence of human serum; format: functional; details: time 16-20 hrs
Klebsiella pneumoniae [21] = assay: Antibacterial activity against Klebsiella pneumoniae 10692 assessed as inhibition of bacterial growth incubated for 16 to 20 hrs; format: functional; details: time 16-20 hrs
Yersinia enterocolitica [22] = assay: Antibacterial activity against Yersinia enterocolitica 13999 assessed as inhibition of bacterial growth incubated for 16 to 20 hrs; format: functional; details: time 16-20 hrs
Vibrio vulnificus [23] = assay: Bactericidal activity against Vibrio vulnificus 204 assessed as inhibition of bacterial growth incubated for 16 to 20 hrs; format: functional; details: time 16-20 hrs
Rhizopus arrhizus [24] = assay: Antifungal activity against Rhizopus oryzae 34550 assessed as inhibition of fungal growth incubated for 16 to 20 hrs; format: functional; details: time 16-20 hrs
Cell membrane = assay: Induction of cell membrane depolarization in Klebsiella pneumoniae BAA 2473 assessed as increase in fluorescence intensity at 1 times MIC incubated for 40 mins by DiBAC4(3) fluorescent dye based assay; format: cell membranes
Klebsiella pneumoniae [25] = assay: Antibacterial activity against Klebsiella pneumoniae TL 297 assessed as inhibition of bacterial growth incubated for 16 to 20 hrs in presence of human serum; format: functional; details: time 16-20 hrs
Vibrio vulnificus [26] = assay: Bactericidal activity against Vibrio vulnificus 204 assessed as inhibition of bacterial growth incubated for 16 to 20 hrs in presence of human serum; format: functional; details: time 16-20 hrs
Acinetobacter baumannii [27] = assay: Bactericidal activity against Acinetobacter baumannii 10591 assessed as inhibition of bacterial growth incubated for 16 to 20 hrs in presence of human serum; format: functional; details: time 16-20 hrs
Klebsiella pneumoniae [28] = assay: Antibacterial activity against Klebsiella pneumoniae BAA 2473 assessed as inhibition of bacterial growth in presence of 0.1 microg/ml of proteinase K (reference value: 1.56 to 3.13 microM); format: functional
Klebsiella pneumoniae [29] = assay: Bactericidal activity against Klebsiella pneumoniae BAA 2473 assessed as inhibition of bacterial growth in presence of 1 microg/ml of trypsin (reference value: 1.56 to 3.13 microM); format: functional
Escherichia coli = assay: Bactericidal activity against Escherichia coli 10675 assessed as inhibition of bacterial growth incubated for 16 to 20 hrs in presence of human serum; format: functional; details: time 16-20 hrs
Acinetobacter baumannii [30] = assay: Bactericidal activity against Acinetobacter baumannii 10591 assessed as inhibition of bacterial growth incubated for 16 to 20 hrs; format: functional; details: time 16-20 hrs
Klebsiella pneumoniae [31] = assay: Antibacterial activity against Klebsiella pneumoniae BAA 2473 assessed as inhibition of bacterial growth in presence of 1 microg/ml of trypsin (reference value: 1.56 to 3.13 microM); format: functional
Klebsiella pneumoniae [32] = assay: Antibacterial activity against Klebsiella pneumoniae BAA 2473 assessed as inhibition of bacterial growth in presence of ciprofloxacin; format: functional
Klebsiella pneumoniae [33] = assay: Antibacterial activity against Klebsiella pneumoniae BAA 2473 assessed as doxycycline MIC; format: functional
Pseudomonas aeruginosa [34] = assay: Bactericidal activity against Pseudomonas aeruginosa 19660 assessed as inhibition of bacterial growth incubated for 16 to 20 hrs; format: functional; details: time 16-20 hrs
Erythrocyte = assay: Hemolytic activity in human Red blood cells assessed as hemolysis at 200 uM incubated for 1 hrs; format: toxicity, cell-based
Klebsiella pneumoniae [35] = assay: Antibacterial activity against Klebsiella pneumoniae BAA 2473 assessed as bacterial eradication measured at 10 hrs; format: functional, organism-based
Klebsiella oxytoca [36] = assay: Bactericidal activity against Klebsiella oxytoca 13985 assessed as inhibition of bacterial growth incubated for 16 to 20 hrs; format: functional; details: time 16-20 hrs

In the case of H-FIHHIIGGLFSAGKAIHRLIRRRRR-OH, the MIC (Pseudomonas aeruginosa [1]) is reported as > 100 µM, the MBC (Klebsiella pneumoniae [2]) is reported as > 100 µM and the MBC (Klebsiella pneumoniae [3]) is reported as > 100 µM. For the same molecule, the MIC (Enterococcus faecium [4]) was 100 µM, the MBC (Salmonella enterica [5]) was < 1.56 µM and the MBC (Rhizopus arrhizus [6]) was 100 µM. It also gave an MIC (Salmonella enterica [7]) of 100 µM, an MBC [8] of 1.56 µM and an MBC (Klebsiella pneumoniae [9]) of 3.13 µM. For the same molecule, the MBC (Yersinia enterocolitica [10]) was 3.13 µM, the MBC (Klebsiella aerogenes) was 6.25 µM and the MIC (Klebsiella oxytoca [11]) was > 100 µM. The MBC (Klebsiella pneumoniae [12]) was > 100 µM, the MIC (Klebsiella pneumoniae [13]) was > 100 µM and the MBC (Klebsiella pneumoniae [14]) was > 100 µM. The MIC (Klebsiella pneumoniae [15]) was > 100 µM, the MBC (Enterococcus faecium [16]) was 100 µM and the MBC (Salmonella enterica [17]) was 100 µM. The MBC (Klebsiella pneumoniae [18]) was 3.13 µM, the MIC (Vibrio vulnificus [19]) was > 100 µM and the MBC (Salmonella typhimurium) was > 100 µM. The MIC [20] was 1.56 µM, the MIC (Staphylococcus aureus) was > 100 µM and the MIC (Klebsiella pneumoniae [21]) was 0.78 µM. It also gave an MIC (Yersinia enterocolitica [22]) of 3.13 µM, an MBC (Vibrio vulnificus [23]) of 3.13 µM and an MIC (Rhizopus arrhizus [24]) of 1.56 µM. The Activity (Cell membrane) was “Active”, the MIC (Klebsiella pneumoniae [25]) was > 100 µM and the MBC (Vibrio vulnificus [26]) was > 100 µM. For the same molecule, the MBC (Acinetobacter baumannii [27]) was 100 µM, the MIC (Klebsiella pneumoniae [28]) was 1.56 µM and the MBC (Klebsiella pneumoniae [29]) was > 100 µM. The MBC (Escherichia coli) was > 100 µM, the MBC (Acinetobacter baumannii [30]) was 1.56 µM and the MIC (Klebsiella pneumoniae [31]) was > 100 µM.
Work on `CC(C)C[C@H](NC(=O)[C@H](CCCCN)NC(=O)[C@@H](CCCCN)NC(=O)[C@H](CC(C)C)NC(=O)[C@@H](N)Cc1ccccc1)C(=O)N[C@H](CC(C)C)C(=O)N[C@@H](CCCCN)C(=O)N[C@@H](C)C(=O)N[C@H](CC(C)C)C(=O)N[C@@H](Cc1ccccc1)C(=O)N[C@@H](CO)C(=O)N[C@H](C)C(=O)N1CCC[C@H]1C(=O)N[C@@H](CCCCN)C(=O)N[C@H](C)C(=O)N[C@@H](CC(C)C)C(=O)N[C@@H](CCCCN)C(=O)N[C@H](CCCNC(=N)N)C(=O)N[C@@H](CC(C)C)C(=O)N[C@@H](CC(C)C)C(=O)N[C@H](CCCNC(=N)N)C(=O)N[C@@H](CCCNC(=N)N)C(=O)N[C@@H](CCCNC(=N)N)C(=O)N[C@H](CCCNC(=N)N)C(=O)N[C@@H](CCCNC(=N)N)C(=O)O` yielded an MIC (Pseudomonas aeruginosa [1]) of 3.13 µM, an MBC (Klebsiella pneumoniae [2]) of 0.78 µM and an MBC (Klebsiella pneumoniae [3]) of 0.78 µM. The MIC (Enterococcus faecium [4]) was 100 µM, the MIC (Klebsiella pneumoniae [32]) was 0.097 µM and the MBC (Salmonella enterica [5]) was 6.25 µM (≈ 19.2 µg/mL). It also gave an MBC (Rhizopus arrhizus [6]) of 100 µM, an MIC (Salmonella enterica [7]) of 0.78 µM and an MBC [8] of 1.56 µM (≈ 4.8 µg/mL). It also gave an MIC (Klebsiella pneumoniae [33]) of 6.25 µM, an MBC (Pseudomonas aeruginosa [34]) of 3.13 µM (≈ 9.64 µg/mL) and an MBC (Klebsiella pneumoniae [9]) of 0.78 µM. The MBC (Yersinia enterocolitica [10]) was 3.13 µM (≈ 9.64 µg/mL), the MBC (Klebsiella aerogenes) was 6.25 µM (≈ 19.2 µg/mL) and the MIC (Klebsiella oxytoca [11]) was 3.13 µM. The MBC (Klebsiella pneumoniae [12]) was 1.56 µM, the MIC (Klebsiella pneumoniae [13]) was 0.78 µM and the MBC (Klebsiella pneumoniae [14]) was 0.78 µM. It also gave an MIC (Klebsiella pneumoniae [15]) of 0.78 µM, an MBC (Enterococcus faecium [16]) of 100 µM and an MBC (Salmonella enterica [17]) of 0.78 µM. The MBC (Klebsiella pneumoniae [18]) was 25 µM (≈ 77 µg/mL), the MIC (Vibrio vulnificus [19]) was 12.5 µM and the Activity (Erythrocyte) was “Non-Toxic”. For the same molecule, the MBC (Salmonella typhimurium) was 3.13 µM, the Activity (Klebsiella pneumoniae [35]) was “Active” and the MIC [20] was 1.56 µM (≈ 4.8 µg/mL). The MIC (Staphylococcus aureus) was 6.25 µM, the MIC (Klebsiella pneumoniae [21]) was 3.13 µM (≈ 9.64 µg/mL) and the MBC (Klebsiella oxytoca [36]) was 1.56 µM (≈ 4.8 µg/mL). For the same molecule, the MIC (Yersinia enterocolitica [22]) was 3.13 µM (≈ 9.64 µg/mL), the MBC (Vibrio vulnificus [23]) was 12.5 µM (≈ 38.5 µg/mL) and the MIC (Rhizopus arrhizus [24]) was 0.78 µM (≈ 2.4 µg/mL). For the same molecule, the Activity (Cell membrane) was “Active”, the MIC (Klebsiella pneumoniae [25]) was 1.56 µM and the MBC (Vibrio vulnificus [26]) was 12.5 µM. It also gave an MBC (Acinetobacter baumannii [27]) of 6.25 µM, an MIC (Klebsiella pneumoniae [28]) of 0.78 µM and an MBC (Klebsiella pneumoniae [29]) of 1.56 µM. For the same molecule, the MBC (Escherichia coli) was 0.78 µM, the MBC (Acinetobacter baumannii [30]) was 3.13 µM (≈ 9.64 µg/mL) and the MIC (Klebsiella pneumoniae [31]) was 1.56 µM.
